Results published in PubChem BioAssay (NCI).
“And” between values parts separate entries of the source, which are not always exact repeats. Identical values can stand only once.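 Step 1: Grow cells in 96-well plates. Step 2: Expose to compound for 48 hours at 5 concentrations. Step 3: Interpolate endpoints linearly; if unreached, use highest concentration. Here, GI50 denotes the concentration required for 50% inhibition of growth. The concentration for full growth arrest is given as TGI.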

Key:
Test in all cases: NCI anticancer screen, dose series, 48 h
HT29 colon = test system: HT29 colon
SK-OV-3 ovarian = test system: SK-OV-3 ovarian
PC-3 prostate = test system: PC-3 prostate
HCC-2998 colon = test system: HCC-2998 colon
MALME-3M melanoma = test system: MALME-3M melanoma
HCT-116 colon = test system: HCT-116 colon
OVCAR-8 ovarian = test system: OVCAR-8 ovarian
BT-549 breast = test system: BT-549 breast

SMILES | GI50 (HT29 colon) | TGI (HT29 colon) | GI50 (SK-OV-3 ovarian) | TGI (SK-OV-3 ovarian) | GI50 (PC-3 prostate) | TGI (PC-3 prostate) | GI50 (HCC-2998 colon) | TGI (HCC-2998 colon) | GI50 (MALME-3M melanoma) | TGI (MALME-3M melanoma) | GI50 (HCT-116 colon) | TGI (HCT-116 colon) | GI50 (OVCAR-8 ovarian) | TGI (OVCAR-8 ovarian) | GI50 (BT-549 breast) | TGI (BT-549 breast)
CO/N=C(/C)COc1ccc2c(c1)oc(=O)c1cc(OC)ccc12 | > 100000 nM | > 100 µM | > 100 µM | > 100 µM | > 100000 nM | > 100 µM | > 100000 nM | > 100 µM | > 100000 nM | > 100 µM | > 100000 nM | > 100 µM | > 100000 nM | > 100 µM | > 100000 nM | > 100 µM
Cn1c2c(c3ccccc31)CCN1C[C@@H]3CCCC[C@H]3C[C@@H]21 | 2610 nM | 8.06 µM | 2.82 µM | 25.6 µM | 3310 nM | > 100 µM | 2100 nM | 5.48 µM | 4220 nM | > 55.8 µM | 3190 nM | > 31.2 µM | 2840 nM | > 30.2 µM | 3040 nM | 9.19 µM
COc1cccc2nc(Nc3cccc(NC(=O)c4ccc(N5CCN(C)CC5)c(C(F)(F)F)c4)c3)ccc12 | 712 nM | 1.61 µM | 1.73 µM | 6.11 µM | 1260 nM | 4.51 µM | 950 nM | 1.78 µM | 816 nM | 1.62 µM | 869 nM | 1.89 µM | 1690 nM | 5.93 µM | 2790 nM | 9.39 µM
C[n+]1cccc(NC(=O)c2ccc3ccc4ccc(C(=O)Nc5ccc[n+](C)c5)nc4c3n2)c1 | 2380 nM | > 100 µM | 1.97 µM | 12.5 µM | 6210 nM | > 100 µM | 3040 nM | > 100 µM | > 89100 nM | > 100 µM | 3180 nM | > 100 µM | 9020 nM | > 100 µM | 24000 nM | > 100 µM
CS(=O)(=O)Nc1cc(-c2ccc3ncc(C#N)c(Nc4ccc(F)c(Cl)c4)c3c2)cnc1Cl | 290 nM | 2.3 µM | 0.194 µM | 0.731 µM | 197 nM | 10.6 µM | 382 nM | 1.55 µM | 35.4 nM | 0.278 µM | 48.6 nM | – | 331 nM | > 100 µM | 54.2 nM | 0.655 µM
COc1ccc2[nH]c(C(=O)OCc3ccc4c(Br)cc(Br)c(O)c4n3)cc2c1 | 390 nM | 1.49 µM | 3.16 µM | 14.4 µM | 730 nM | 2.27 µM | 1570 nM | 3.06 µM | 1450 nM | 2.85 µM | 187 nM | 0.543 µM | 907 nM | 2.64 µM | 881 nM | 2.16 µM
COc1ccc(N=Nc2ccc(O)c(=O)cc2)cc1 | 4830 nM | 49.7 µM | 4.58 µM | > 100 µM | 4820 nM | > 100 µM | 4040 nM | > 100 µM | 2860 nM | 14.2 µM | 2580 nM | 15.4 µM | 2880 nM | > 100 µM | 2030 nM | 11.6 µM
COc1cc(/C=C2\CC3C4CCC5=CC(=O)CC[C@]5(C)C4CC[C@]3(C)C2=O)ccc1OCCN1CCCC1 (some centres not stated) | 2500 nM | > 28.5 µM | 4.56 µM | 16.8 µM | 2350 nM | 8.31 µM | 1850 nM | 3.89 µM | 645 nM | 1.93 µM | 1410 nM | 3.79 µM | 3400 nM | 13.5 µM | 8440 nM | 23.3 µM
NS(=O)(=O)c1ccc(N=Nc2c(O)[nH]c3ccc(C(=O)NCCCn4ccnc4)cc23)cc1 | > 25000 nM | > 25 µM | > 25 µM | > 25 µM | > 25000 nM | > 25 µM | > 25000 nM | > 25 µM | > 25000 nM | > 25 µM | > 25000 nM | > 25 µM | > 25000 nM | > 25 µM | > 25000 nM | > 25 µM
CC[C@]12C=CCN3CC[C@]4(C(=C(C(=O)OC)C1)Nc1cc5c(cc14)[C@@H]1[C@H](O5)[C@@H](O)[C@@]4(CC)CC(C(=O)OC)=C5Nc6ccccc6[C@@]56CCN1[C@@H]46)[C@@H]32 | 130 nM and 186 nM | – | 1.09 µM | 25 µM | 435 nM and 776 nM | 25 µM and 16.2 µM | 29.2 nM and 36.6 nM | 2.63 µM and 1.26 µM | 412 nM and 431 nM | 3.45 µM and 15.2 µM | 216 nM and 341 nM | 2.59 µM and 1.65 µM | 648 nM and 449 nM | 25 µM and > 100 µM | 913 nM and 2490 nM | 25 µM and > 100 µM
c1cc[n+](Cc2c3ccccc3cc3c2ccc2ccccc23)cc1 | 2770 nM | 11.2 µM | 13.6 µM | 59.1 µM | 2800 nM | 14.4 µM | 3380 nM | 19.4 µM | 1560 nM | 3.91 µM | 4770 nM | 17.1 µM | 3490 nM | 16.1 µM | 1730 nM | 4.6 µM
Cn1cc(-c2csc(-c3ccccc3)n2)c2cccnc21 | 14200 nM | 27.2 µM | 18.7 µM | 43.3 µM | 14400 nM | 39.1 µM | 16700 nM | 31.1 µM | 16400 nM | 42.6 µM | 13800 nM | 26.7 µM | 20300 nM | 52.4 µM | 17100 nM | 45.8 µM
Cc1c(O)cccc1C(=O)N[C@@H](CSc1ccccc1)[C@H](O)CN1C[C@H]2CCCC[C@H]2C[C@H]1C(=O)NC(C)(C)C | 3060 nM and 5650 nM | 12 µM and 19.9 µM | 4.29 µM and 9.5 µM | 23.9 µM and > 59.7 µM | 2950 nM and 3940 nM | 11.1 µM and > 35.1 µM | 3600 nM and 4970 nM | 10.5 µM and 13.6 µM | 2130 nM and 7030 nM | 8.41 µM and 18.6 µM | 4270 nM and 5970 nM | 16 µM and 17.9 µM | 6560 nM and 7870 nM | 35.2 µM and 39.6 µM | 4970 nM and 3880 nM | 21.1 µM and 17.1 µM
COc1ccccc1CNCCCN1C(=O)c2ccc3c4c(ccc(c24)C1=O)C(=O)N(CCCNCCCCNCCCN)C3=O | 287 nM | 0.995 µM | 1.95 µM | 11.1 µM | 561 nM | 5.23 µM | 295 nM | 1.06 µM | 241 nM | 0.546 µM | 315 nM | 1.16 µM | 285 nM | 2.19 µM | 1700 nM | 3.57 µM
